Data as given in PubChem BioAssay AID256 (DTP/NCI, 2004).
Values joined by “and” are separate entries in the source; they are usually repeats but may differ in a detail not shown here. Equal entries are not always repeated. Toxic doses and inconclusive results are not listed. How the source made its calls: active means survival T/C of 150% or more; inactive means T/C below 125% in these data.

Tested on: CD2F1 mice, L1210 leukemia ip, survival T/C
Test: NCI In Vivo Anticancer Drug Screen. Data for tumor model L1210 Leukemia (intraperitoneal) in CD2F1 (CDF1) mice
Conditions: endpoint: mean survival time, higher = longer survival
How it was run: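 Mice carrying a transplanted tumor received test compound or vehicle alone. The value is the measurement in the treated group divided by that in the vehicle-treated control group.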

[1] = dose: 100.0 mg/kg/injection, schedule: Q04DX003 (ip), vehicle: Klucel (hydroxypropylcellulose) (HPC)
[2] = dose: 100.0 mg/kg/injection, schedule: Q01DX009 (ip), vehicle: saline with Tween-80
[3] = dose: 200.0 mg/kg/injection, schedule: Q01DX009 (ip), vehicle: saline with Tween-80
[4] = dose: 50.0 mg/kg/injection, schedule: Q01DX009 (ip), vehicle: saline with Tween-80
[5] = dose: 100.0 mg/kg/injection, schedule: Q04DX003 (ip), vehicle: saline with Tween-80
[6] = dose: 200.0 mg/kg/injection, schedule: Q04DX003 (ip), vehicle: saline with Tween-80
[7] = dose: 400.0 mg/kg/injection, schedule: Q04DX003 (ip), vehicle: saline with Tween-80
[8] = dose: 75.0 mg/kg/injection, schedule: Q01DX001 (ip), vehicle: saline
[9] = dose: 100.0 mg/kg/injection, schedule: Q01DX001 (ip), vehicle: saline with Tween-80
[10] = dose: 150.0 mg/kg/injection, schedule: Q01DX001 (ip), vehicle: saline

Measured: T/C

Cc1c2[nH]c(c1CCC(=O)O)/C=c1\[n-]/c(c(C)c1CCC(=O)O)=C\c1[n-]c(c(C)c1C(C)O)/C=c1\[nH]/c(c(C)c1C(C)O)=C\2.[Cl][Pt+2][Cl] (configuration not stated)
inactive: dose: 12.5 mg/kg/injection, schedule: Q04DX003 (ip), vehicle: Klucel (hydroxypropylcellulose) (HPC) 88 % of control | dose: 25.0 mg/kg/injection, schedule: Q04DX003 (ip), vehicle: Klucel (hydroxypropylcellulose) (HPC) 90 % of control | dose: 50.0 mg/kg/injection, schedule: Q04DX003 (ip), vehicle: Klucel (hydroxypropylcellulose) (HPC) 93 % of control | [1] 88 % of control

O=C1OC(=O)C2C3CC(C(Br)C3Br)C12 (configuration not stated)
inactive: dose: 100.0 mg/kg/injection, schedule: Q01DX001 (ip), vehicle: saline 97 % of control | [2] 106 % of control | dose: 200.0 mg/kg/injection, schedule: Q01DX001 (ip), vehicle: saline 98 % of control | [3] 104 % of control | dose: 400.0 mg/kg/injection, schedule: Q01DX001 (ip), vehicle: saline 97 % of control | dose: 400.0 mg/kg/injection, schedule: Q01DX009 (ip), vehicle: saline with Tween-80 101 % of control

C/C=C(\Cl)C1=CC(=O)C23CC2C2(C)COC1(O)C3(O)O2 (configuration not stated)
inactive: dose: 1.5 mg/kg/injection, schedule: Q01DX009 (ip), vehicle: saline with Tween-80 93 % of control | dose: 3.0 mg/kg/injection, schedule: Q01DX009 (ip), vehicle: saline with Tween-80 93 % of control | dose: 6.0 mg/kg/injection, schedule: Q01DX009 (ip), vehicle: saline with Tween-80 110 % of control

CN(C)CCSCC(=O)N1c2ccccc2Sc2ccc(Cl)cc21
inactive: [4] 103 % of control | [2] 101 % of control | [5] 98 % of control | [6] 98 % of control

Cc1c(Cl)cccc1N=Cc1ccc2c(c1)OCO2
inactive: [1] 102 % of control | dose: 200.0 mg/kg/injection, schedule: Q04DX003 (ip), vehicle: Klucel (hydroxypropylcellulose) (HPC) 96 % of control | dose: 400.0 mg/kg/injection, schedule: Q04DX003 (ip), vehicle: Klucel (hydroxypropylcellulose) (HPC) 102 % of control

O=C(COc1ccccc1)NCc1ccccc1Cl
inactive: [5] 100 % of control | [6] 103 % of control | [7] 91 % of control

COc1ccc2c3c(ccc2c1)C1=NCCC1(C)CC3 (configuration not stated)
inactive: dose: 100.0 mg/kg/injection, schedule: Q01DX001 (sc), vehicle: Klucel (hydroxypropylcellulose) (HPC) 101 % of control | dose: 100.0 mg/kg/injection, schedule: Q04DX003 (sc), vehicle: steriod suspending solution 105 % of control | dose: 200.0 mg/kg/injection, schedule: Q01DX001 (sc), vehicle: Klucel (hydroxypropylcellulose) (HPC) 101 % of control | dose: 200.0 mg/kg/injection, schedule: Q04DX003 (sc), vehicle: steriod suspending solution 102 % of control | dose: 400.0 mg/kg/injection, schedule: Q01DX001 (sc), vehicle: Klucel (hydroxypropylcellulose) (HPC) 93 % of control | dose: 400.0 mg/kg/injection, schedule: Q04DX003 (sc), vehicle: steriod suspending solution 108 % of control

CSc1sc2cc([N+](=O)[O-])ccc2[n+]1C
inactive: [8] 103 % of control

CSc1ccc(OC(=O)Nc2ccc(C)c([N+](=O)[O-])c2)cc1C
inactive: [5] 92 % of control | [6] 92 % of control | [7] 96 % of control

CCCCN=Cc1ccccc1O.CCCCN=Cc1ccccc1O.[Cr]
inactive: [9] 93 % of control

COC1=CC2c3ccccc3C1C1C(OC)=CC2c2ccccc21
inactive: dose: 25.0 mg/kg/injection, schedule: Q01DX009 (ip), vehicle: saline with Tween-80 96 % of control | [4] 98 % of control | [2] 96 % of control | [5] 88 % of control

N=C(N)c1ccc(Nc2ccc(C(=N)N)cc2)cc1
inactive: dose: 3.0 mg/kg/injection, schedule: Q01DX009 (ip), vehicle: saline 96 % of control and 100 % of control | dose: 6.0 mg/kg/injection, schedule: Q01DX009 (ip), vehicle: saline 100 % of control and 101 % of control | dose: 12.0 mg/kg/injection, schedule: Q01DX009 (ip), vehicle: saline 93 % of control and 95 % of control | dose: 24.0 mg/kg/injection, schedule: Q01DX009 (ip), vehicle: saline 98 % of control

O=C(OC(C(=O)O)C(OC(=O)c1ccccc1)C(=O)O)c1ccccc1 (configuration not stated) (tested in a mixture with another compound)
inactive: dose: 50.0 mg/kg/injection, schedule: Q04DX002 (ip), vehicle: saline with Tween-80 92 % of control | [9] 105 % of control | dose: 100.0 mg/kg/injection, schedule: Q04DX002 (ip), vehicle: saline with Tween-80 106 % of control | [5] 101 % of control | dose: 200.0 mg/kg/injection, schedule: Q01DX001 (ip), vehicle: saline with Tween-80 100 % of control | dose: 200.0 mg/kg/injection, schedule: Q04DX002 (ip), vehicle: saline with Tween-80 95 % of control | [6] 106 % of control | dose: 400.0 mg/kg/injection, schedule: Q01DX001 (ip), vehicle: saline with Tween-80 97 % of control | [7] 98 % of control

N#CCCCN=[N+]=[N-]
inactive: [8] 96 % of control | [10] 101 % of control

CC(=O)CC(C)=O.CC(=O)CC(C)=O.CC(=O)CC(C)=O.[Fe]
inactive: dose: 6.25 mg/kg/injection, schedule: Q01DX009 (ip), vehicle: saline with Tween-80 93 % of control | dose: 12.5 mg/kg/injection, schedule: Q01DX009 (ip), vehicle: saline with Tween-80 97 % of control | dose: 12.5 mg/kg/injection, schedule: Q04DX003 (ip), vehicle: saline with Tween-80 102 % of control | dose: 25.0 mg/kg/injection, schedule: Q04DX003 (ip), vehicle: saline with Tween-80 98 % of control

CN(N=O)C(=O)NCC1OC(OC2(CNC(=O)N(C)N=O)OC(CNC(=O)N(C)N=O)C(O)C2O)C(O)C(O)C1O (configuration not stated)
inactive: dose: 12.5 mg/kg/injection, schedule: Q01DX009 (ip), vehicle: water 102 % of control | dose: 25.0 mg/kg/injection, schedule: Q01DX009 (ip), vehicle: water 104 % of control | dose: 50.0 mg/kg/injection, schedule: Q01DX009 (ip), vehicle: water 110 % of control | dose: 100.0 mg/kg/injection, schedule: Q01DX009 (ip), vehicle: water 117 % of control

CCn1c(C)[n+](CC)c2ccc(C(F)(F)F)cc21
inactive: [8] 94 % of control | [10] 100 % of control

COP(=O)(NC(C)=O)OC
inactive: dose: 50.0 mg/kg/injection, schedule: Q04DX002 (ip), vehicle: saline 87 % of control | dose: 100.0 mg/kg/injection, schedule: Q04DX002 (ip), vehicle: saline 93 % of control | dose: 200.0 mg/kg/injection, schedule: Q04DX002 (ip), vehicle: saline 93 % of control | dose: 400.0 mg/kg/injection, schedule: Q04DX002 (ip), vehicle: saline 96 % of control

CCOC(=O)Cn1cnc2cc(C)c(C)cc21
inactive: [2] 101 % of control | [5] 94 % of control | [3] 94 % of control | [6] 100 % of control | [7] 96 % of control

CC(=O)N(c1nc(Cl)c2cc[nH]c2n1)C1OC(CO)C(O)C1O (configuration not stated)
inactive: dose: 12.5 mg/kg/injection, schedule: Q01DX005 (ip), vehicle: water 100 % of control | dose: 25.0 mg/kg/injection, schedule: Q01DX005 (ip), vehicle: water 100 % of control | dose: 50.0 mg/kg/injection, schedule: Q01DX005 (ip), vehicle: water 101 % of control | dose: 100.0 mg/kg/injection, schedule: Q01DX005 (ip), vehicle: water 101 % of control | dose: 200.0 mg/kg/injection, schedule: Q01DX005 (ip), vehicle: water 103 % of control
